Reference: patent US20240103006A1 (Roche Diagnostics Operations, Inc., priority 2021, published 2024)
In brackets after ≈: the same amount, converted by molar mass. Marks after values point to notes of the source that are not given here.

Assays:
[1] = UV-vis spectral properties / extinction coefficients in aqueous buffer; type: physicochemical; settings: probe before addition of Cys
Experimental: Absorption spectra were recorded on a Cary 50 UV-vis spectrometer from Varian. All measurements were performed in 1 cm UV-vis disposable cuvettes (BRAND semi-micro) and air-equilibrated solutions at 25±0.1° C. A total assay volume of 1.0 mL was used for each measurement. UV-vis scan spectra were recorded using following parameters: average time 0.05 s; data interval 1 nm; scan rate 1200 nm/min; with base line correction.
(§1) Stock solutions of assayed compounds (2-5 mM) were prepared in H2O-DMSO (1:1), stored at −20° C., and diluted to 1.0 mM with buffer before use. The L-Cys stock solution (20.0 mM) was freshly prepared in buffer before the measurements. […]
For a measurement, 1000 μL of buffer and 1-50 μL of probe (1.0 mM) were mixed, and then transferred to a cuvette. Absorbance spectra (250-800 nm) were measured against a blank of the buffer. At least six concentrations of each compound were used to calculate extinction coefficients from the slope of probe concentration vs absorbance plots, using MS Excel software (Microsoft).

[2] = Cys-response screening by UV-vis (cleavage of acryloyl ester by excess Cys); settings: for ε^Cys / λ^Cys: after excess Cys (100 μM), 37° C., 15 min; for SNR: from ε^Cys and ε^blank
Experimental: as §1
In the same manner, ε^Cys was determined from the solutions of probe reacted with an excess of Cys (100 μM). The reactions were performed at 37° C. (incubation time 15 min). Blank reactions were run without addition of Cys.
Spectra recorded in the presence of Cys confirmed a colorimetric response through the cleavage of acryloyl ester. […] Moreover, their spectral profiles were advantageously fulfilling the wavelength requirement for the Cys sensing application in Cedex system (340, 378, 409, 480, 512, 520, 552, 583, 629, 652, 659 and 800 nm).

[3] = Evaluation of stability (hydrolysis of probe in buffer, UV-vis); type: physicochemical; settings: 25 mM HEPES pH 7.4, 15.6 μM, 5 h, ε from merocyanine analogues (LZ07: ε from Table 2)
Experimental: For a measurement, 1000 μL of buffer and 16 μL of probe (1.0 mM) were mixed, and then incubated at +4° C. and at +37° C. for 5 h. The resulting mixtures were transferred to a cuvette, and the absorbance (250-800 nm) was measured. Each measurement was done in triplicate.
[…] Solutions of each probe were monitored by UV-vis for 5 h.

[4] = Evaluation of solubility in water; type: physicochemical; settings: for Solubility (by weight) / Solubility (by UV-vis): H2O at RT; for Solubility (by weight): calculated from isolated pellet weight; for Solubility (by UV-vis): supernatant read in 25 mM HEPES pH 7.4
Experimental: In the experiments, 5-10 mg of dried material was suspended in 250-500 μL of H2O at RT. The resulting suspension was centrifuged for 10 min at RT (16000 rcf). UV-vis of supernatant were recorded in buffer (25 mM HEPES pH 7.4) at RT. Each measurement was done in triplicate. The pellet was dried in vacuo for 16 h, and then weighed.
The aqueous solubility of probes is another important property for the performance of compounds in biological assays. The inventors determined the solubility in water of the probes according to the invention using UV-vis. First, oversaturated mixtures of each probe were prepared. The mixtures were centrifuged, and then the concentrations in probes of supernatant were examined by UV-vis. To further validate the results, the concentrations were calculated from the isolated pellet weight.

[5] = Probe performance in Cedex Bio HT: Cys sensing in a feed medium
Experimental: The rapid kinetic profile, stability and low background signal as obtained were encouraging to further use MF70 for Cys-sensing in Cedex Bio HT. Reagent solution was treated with various Cys-concentrations (0.5-7.6 mM) in a feed medium, which is used for monoclonal antibody production. […] Under these conditions, a reliable response was obtained over the period of one week (Table 5), with corresponding detection limit of 3.6 μM Cys, and limit of blank 2.2 μM Cys.

Structure (SMILES) | ε of long-wavelength band of probe ([1]; 25 mM HEPES pH 7.4) [mM⁻¹ cm⁻¹] | ε of short-wavelength band(s) of probe ([1]; 25 mM HEPES pH 7.4) [mM⁻¹ cm⁻¹] | λmax, long-wavelength band of probe ([1]; 25 mM HEPES pH 7.4) [nm] | λmax, short-wavelength band(s) of probe ([1]; 25 mM HEPES pH 7.4) [nm] | ε^Cys ([2]; 25 mM HEPES pH 7.4) [mM⁻¹ cm⁻¹] | λ^Cys ([2]; 25 mM HEPES pH 7.4) [nm] | SNR ([2]; 25 mM HEPES pH 7.4) | Hydrolysis @4° C. [3] [%] | Hydrolysis @37° C. [3] [%] | Solubility (by weight) [4] [mM] | Solubility (by UV-vis) [4] [mM] | ε^Cys ([2]; same buffer at pH 8.0) [mM⁻¹ cm⁻¹] | λ^Cys ([2]; same buffer at pH 8.0) [nm] | SNR ([2]; same buffer at pH 8.0) | also measured
C=CC(=O)Oc1ccc(/C=C/C2=[N+](CCCCS(=O)(=O)[O-])c3ccccc3C2(C)C)cc1 [LZ05, reference compound] | 1.3 | 17.3 | 527 | 389 | 31.9 | 527 | 12 | 8.4 ± 0.2 | 36.9 ± 0.4 | 12 (≈ 5440 µg/mL) | 11.0 ± 1.0 (≈ 4990 µg/mL) |  |  |  | 
C=CC(=O)Oc1ccc(/C=C/C2=[N+](C)c3ccccc3C2(C)C)cc1 [LZ07, reference compound] | 0.6 | 16.9 | 520 | 383 | 31.5 | 520 | 16 | 7.3 ± 0.1 | 30.1 ± 0.2 | 17 | 15.4 ± 1.5 |  |  |  | 
C=CC(=O)Oc1c(C)cc(/C=C/C2=[N+](CCCCS(=O)(=O)[O-])c3ccccc3C2(C)C)cc1C [MF59] | 0.7 | 16.7 | 550 | 391 | 17.9 | 550 | 20 | 1.2 ± 0.0 | 4.7 ± 0.1 | 2 (≈ 963 µg/mL) | 5.8 ± 0.2 (≈ 2790 µg/mL) | 52.9 | 550 | 44** | 
C=CC(=O)Oc1ccc(/C=C/C2=[N+](CCCCS(=O)(=O)O)c3ccccc3C2(C)C)cc1S(=O)(=O)[O-] [MF65] | 1.2 | 17.7 | 528 | 381 | 44.3 | 528 | 16 | 7.2 ± 0.2 | 28.9 ± 1.4 |  |  |  |  |  | 
C=CC(=O)Oc1c(C)cc(/C=C/C2=[N+](CCCS(=O)(=O)O)c3ccc(S(=O)(=O)[O-])cc3C2(C)C)cc1C [MF70] |  | 21.9 |  | 400 | 23.6 | 556 | 118 | 0.2 ± 0.0 | 0.8 ± 0.0 | ≥47 | ≥41 | 55.8 | 556 | 140** | ε of short-wavelength band of probe ([1]; same buffer at pH 8.0): 16.6 mM⁻¹ cm⁻¹; λmax, short-wavelength band of probe ([1]; same buffer at pH 8.0): 400 nm; aqueous solubility (in words) ([4]; in comparison to LZ05 and MF59): highly water-soluble; detection limit [5]: 3.6 μM Cys; limit of blank [5]: 2.2 μM Cys
C=CC(=O)Oc1c(C)cc(/C=C/C2=[N+](C)c3ccccc3C2(C)C)cc1C [MF71] | 0.6 | 29.1 | 546 | 387 | 33.7 | 547 | 48 | 1.0 ± 0.1 | 2.3 ± 0.2 |  |  | 69.6 | 547 | 53** | ε of long-wavelength band of probe ([1]; same buffer at pH 8.0): 0.8 mM⁻¹ cm⁻¹; ε of short-wavelength band of probe ([1]; same buffer at pH 8.0): 25.7 mM⁻¹ cm⁻¹; λmax, long-wavelength band of probe ([1]; same buffer at pH 8.0): 546 nm; λmax, short-wavelength band of probe ([1]; same buffer at pH 8.0): 385 nm
C=CC(=O)Oc1c(OC)cc(/C=C/C2=[N+](CCCCS(=O)(=O)[O-])c3ccccc3C2(C)C)cc1OC [MF72] |  | 14.2 |  | 396 | 31.0 | 575 | 103 | 0.8 ± 0.1 | 2.8 ± 0.1 |  |  |  |  |  | 
